In patent US9567318B2, “Substituted pyrimidine compounds and uses thereof” (Memorial Sloan-Kettering Cancer Center, priority 2009, dated 2017):

Legend:
[1] = test system: STAT1 in MDA-MB-468 cells; test: Activated STAT1 DNA binding assay (ELISA); assay type: cell-based, human; conditions: IFNγ 100 ng/ml
Protocol: FIG. 19. YK5 enhances the nuclear content of IFNγ activated STAT1 and potentiates its binding to DNA. MDAMB-468 cells were treated with IFNγ (100 ng/ml) or co-treated with IFNγ (100 ng/ml) and YK5 (10 μM). (a) Activated STAT1 (pTyr701), was determined by immunofluorescent microscopy with a secondary antibody conjugated with FITC. Nuclear staining was performed with DAPI. (b) Activated STAT1 binding to STAT consensus binding site (5′-[…]-3′) was determined by an ELISA-based assay. Activated STAT1, contained in lysates from untreated (white bar), treated with YK5 (light grey bar), IFNγ (dark grey bars) or the combination of IFNγ and YK5 (black bars) cells, and bound to the oligonucleotide, was detected through use of an anti-STAT1 antibody. Assays were performed in the absence or presence of 20 pmol of competitor oligonucleotide that contains either a wild-type or a mutated STAT consensus binding site using IFNγ-treated cells (dark grey bars). […] Results are expressed as mean absorbance values (OD450 nm) with SEM.
Activated STAT1 DNA binding assay. […] After HRP substrate addition, absorbance was read at 450 nm with a reference wavelength of 655 nm (Synergy4, Biotek, Winooski, Vt.). In this assay the absorbance is directly proportional to the quantity of DNA-bound transcription factor present in the sample. […] Results were expressed as mean absorbance values with SEM. […]

Hsc70 and DJA2 = biological target: T1, Hsc70 and DJA2 (Homo sapiens, UniProt P11142); test: Luciferase refolding by Hsc70 and DJA2; assay type: biochemical; conditions: 30° C.
T1 construct: made in house
T1 sequence (P11142 whole entry): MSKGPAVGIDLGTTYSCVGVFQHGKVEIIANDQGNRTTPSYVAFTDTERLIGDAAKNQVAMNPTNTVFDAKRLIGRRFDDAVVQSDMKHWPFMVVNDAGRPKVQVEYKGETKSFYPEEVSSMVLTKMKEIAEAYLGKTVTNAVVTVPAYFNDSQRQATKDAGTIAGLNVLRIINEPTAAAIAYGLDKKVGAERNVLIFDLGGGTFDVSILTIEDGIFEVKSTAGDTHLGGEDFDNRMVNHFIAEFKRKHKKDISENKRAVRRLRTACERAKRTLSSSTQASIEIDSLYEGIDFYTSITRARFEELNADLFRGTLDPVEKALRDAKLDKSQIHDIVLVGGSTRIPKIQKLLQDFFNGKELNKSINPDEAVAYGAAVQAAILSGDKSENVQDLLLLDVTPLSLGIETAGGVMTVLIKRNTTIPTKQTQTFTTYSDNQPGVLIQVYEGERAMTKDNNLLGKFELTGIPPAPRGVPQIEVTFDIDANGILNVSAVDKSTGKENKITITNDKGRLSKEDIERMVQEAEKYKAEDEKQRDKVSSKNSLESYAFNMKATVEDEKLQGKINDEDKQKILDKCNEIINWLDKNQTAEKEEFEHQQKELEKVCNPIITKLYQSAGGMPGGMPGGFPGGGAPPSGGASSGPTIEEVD
Protocol: FIG. 6. YK5 inhibits core biochemical functions of Hsp70s and disrupts the Hsp90/Hsp70 interaction. a) Refolding of denatured luciferase by Hsc70 and DJA2 at 30° C. was measured for the indicated times in the presence of YK5 (100 μM) or vehicle (left), or at 60 min in the presence of indicated concentrations of YK5 (right). b) Hsc70 ATPase rates were measured for reactions at 30° C. with the indicated combinations of Hsc70 and co-chaperones in the presence of vehicle (DMSO) or YK5 (100 μM). ADP production was monitored by thin layer chromatography separation of radiolabeled ADP from ATP and phosphorimaging analysis (lower). […] Proteins isolated with anti-Hsp90 and Hsp70s antibodies (IP: Hsp90 or Hsp70), or present in the cell extract (Lysate) were analyzed by WB. […] Proteins were applied to a native gel and analyzed by immunoblotting. […]
Hsc70 ATPase Activity and Luciferase Refolding. Human Hsc70, DJA1/DNAJA1, DJA2/DNAJA2 and Hsp110/Hsp105/HSPH1 were purified and analyzed. […] Samples at time points were terminated with 37.5 mM EDTA and analyzed by thin layer chromatography on polyethylene-imine cellulose (Mallinckrodt Baker) developed in 0.5 M LiCl and 0.5 M formic acid. The ADP produced was determined by image phosphor quantitation and the linear enzymatic rates (Vmax) were calculated by regression analysis. […]

HSF-1 in SKBr3 cells = test: Native gel electrophoresis, HSF-1 activation; assay type: cell-based, human; conditions: 3 h
Protocol: FIG. 6. YK5 inhibits core biochemical functions of Hsp70s and disrupts the Hsp90/Hsp70 interaction. a) Refolding of denatured luciferase by Hsc70 and DJA2 at 30° C. was measured for the indicated times in the presence of YK5 (100 μM) or vehicle (left), or at 60 min in the presence of indicated concentrations of YK5 (right). b) Hsc70 ATPase rates were measured for reactions at 30° C. with the indicated combinations of Hsc70 and co-chaperones in the presence of vehicle (DMSO) or YK5 (100 μM). ADP production was monitored by thin layer chromatography separation of radiolabeled ADP from ATP and phosphorimaging analysis (lower). The data are consistent with those obtained from multiple repeat experiments (n≧2). c,d) SKBr3 cells were treated for 24 h with vehicle or indicated concentrations of YK5 (c) or for the indicated times with YK5 (10 μM) (d). Proteins isolated with anti-Hsp90 and Hsp70s antibodies (IP: Hsp90 or Hsp70), or present in the cell extract (Lysate) were analyzed by WB. Specificity of binding was tested with a control IgG. HC=heavy chain; DJA1 and Hdj1=Hsp40 isoforms. e) Unlike Hsp90 inhibitors, YK5 fails to activate HSF-1. […] Proteins were applied to a native gel and analyzed by immunoblotting. The data are consistent with those obtained from multiple repeat experiments (n≧3). f) YK5 was tested in the scanMAX screen (Ambit) against 359 kinases. […]

With `C=CC(=O)Nc1cc(N)nc(Sc2c(OC)nc(N3CCN(C)CC3)nc2OC)n1` [YK5, N-(6-amino-2-(4,6-dimethoxy-2-(4-methylpiperazin-1-yl)pyrimidin-5-ylthio)pyrimidin-4-yl)acrylamide] the “DNA-binding efficacy of activated STAT1” value [1] was “increased its DNA-binding efficacy”, the “refolding of luciferase by purified Hsc70 and DJA2” value (Hsc70 and DJA2) was “dose-dependently inhibited the refolding of luciferase” and the HSF-1 activation (HSF-1 in SKBr3 cells) was “no effect”.
